Assay results from paper PMC8020795 (Proceedings of the National Academy of Sciences of the …, 2021).

What was measured:
HCA-1 cells = experiment: Wound healing assay; assay type: cell-based, murine; conditions: CXCL12 100 ng/mL, BPRCX807 10 μM, 24, 48, 72 h
Description: [3-(2-Aminomethyl-oxazol-4-yl)-propyl]-[3-(tert-butoxycarbonyl-cyclohexyl-amino)- propyl]-carbamic acid tert-butyl ester (Linker 1). A mixture of L1-6 (10.35 g, 16.5 mmol) and 10% Pd/C (4.66 g) in iso-propanol (310 mL) was stirred under H2(g) at 50 °C for 15 h.
The resulting mixture was filtered, and the filtrate was concentrated to afford Linker 1 (7.23 g, […]
Wound healing and invasion assays
Cell migration ability was measured by wound healing assay. HCA-1 cells (5 × 10^5 cells per well) were seeded onto 12-well plates and incubated overnight. When the cell confluence exceeded 90%, scratch wounds were made by scraping a straight line in the middle of the cell layer using the tip of a 1000 µL pipette. After washing the cells with PBS, the cells were incubated in serum-free medium under different treatment conditions (control, 100 ng/mL CXCL12, and 10 µM BPRCX807 with 100 ng/mL CXCL12). Then, 3-4 fields (40×) of each group were randomly chosen and observed by a microscope (IX83, Olympus, Japan) at time points of 0 h, 24h, 48 h and 72 h. For the invasion assay, HCA-1 cells were suspended in RPMI 1640 containing 0.5% FBS and then preincubated with the indicated concentrations of compounds for 10 min at 37 °C. […] After 17.5 h of incubation at 37 °C, the cells in both chambers of the inserts were measured with a CellTiter-Glo Luminescent Cell Viability Assay (Promega, Wisconsin). […]

CXCR4 = CXCR4 (Homo sapiens, UniProt P61073); experiment: Human CXCR4-binding assay ([125I]CXCL12 displacement, hCXCR4-transfected HEK293T membranes); set-up: expressed in transfected cells; host or cells: HEK293T
Description: concentrations of BPRCX807 in incubation buffer (50 mM HEPES-NaOH, pH 7.4, 100 mM NaCl, 5 mM MgCl2, 1 mM CaCl2, 0.5% BSA). Nonspecific binding was defined in the […]
The reaction mixtures were incubated for 1.5 h at 30 °C and then transferred to a 96 -well GF/B filter plate (Merck Millipore, Billerica, MA).
The reaction mixtures were terminated by manifold filtration and washed with ice-cold wash buffer (50 mM HEPES-NaOH, pH 7.4, 100 mM NaCl) four times. The radioactivity bound to the filter was measured with a TopCount instrument (PerkinElmer, Waltham, MA). The IC50 values were determined as the concentrations of the compounds required to inhibit 50% of the specific binding of [125I]CXCL12 and were calculated by nonlinear regression (GraphPad software, San Diego, CA).
Pharmacokinetics and toxicological studies
Male C57BL/6 mice, each weighing 23.4–25.4 g, were quarantined for 1 week before drug treatment. Compounds dissolved in 100% saline were individually given to mice (n = 3) subcutaneously (6 mg/kg; nonfasted mice). […] The plasma samples were analyzed by liquid chromatography– tandem mass spectrometry (LC–MS/MS), and the data were calculated by a standard noncompartmental method using the Kinetica software program (InnaPhase). […]

[1] = Non-GLP 14-d repeated dose toxicology; assay type: in vivo

CXCR4, sequence (P61073 whole entry): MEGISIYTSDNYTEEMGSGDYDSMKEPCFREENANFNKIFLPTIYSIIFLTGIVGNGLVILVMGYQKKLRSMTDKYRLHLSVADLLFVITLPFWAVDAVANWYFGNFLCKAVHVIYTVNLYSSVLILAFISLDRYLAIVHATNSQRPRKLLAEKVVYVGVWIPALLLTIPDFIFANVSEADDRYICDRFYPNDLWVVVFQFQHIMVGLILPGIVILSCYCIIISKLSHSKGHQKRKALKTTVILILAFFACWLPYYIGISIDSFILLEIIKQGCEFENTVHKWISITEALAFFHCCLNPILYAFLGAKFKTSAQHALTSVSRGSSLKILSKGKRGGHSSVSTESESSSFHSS

Structure (SMILES): Cc1cc(NC2CCN(C(=O)CCNCC(=O)O)CC2)nc(NCc2nc(CCCNCCCNC3CCCCC3)co2)n1 [BPRCX807]
- CXCL12-induced wound closure rate (HCA-1 cells): significantly suppressed
- IC50 (CXCR4): 40.4 ± 8 nM
- Survival in repeated dose toxicology ([1]; SD rats, 50 mg/kg/d, 14 d): all animals survived up to study termination
- Non-GLP 14-d repeated dose, overall finding ([1]; rat, in vivo): Clean
- Hematological and biochemical data vs vehicle ([1]; rat, in vivo, 50 mg/kg/day): no significant difference
- Major organs (heart, lung, kidney, liver) vs vehicle ([1]; rat, in vivo, 50 mg/kg/day): normal in size, weight, and color
- Adrenal Glands/B.W. ([1]; rat, in vivo, sc, 50 mg/kg): 0.0002 ± 0.00003
- Albumin (ALB) ([1]; rat, in vivo, sc, 50 mg/kg): 4.0 ± 0.2 g/dL
- Alkaline Phosphatase (ALP) ([1]; rat, in vivo, sc, 50 mg/kg): 901 ± 60 U/L
- Basophil ([1]; rat, in vivo, sc, 50 mg/kg): 0.002 ± 0.004 103/µL
- Basophil % ([1]; rat, in vivo, sc, 50 mg/kg): 0.01 ± 0.02%
- Blood Urea Nitrogen (BUN) ([1]; rat, in vivo, sc, 50 mg/kg): 16.7 ± 2.1 mg/dL
- Creatinine (CRE) ([1]; rat, in vivo, sc, 50 mg/kg): 0.22 ± 0.04 mg/dL
- Eosinophil ([1]; rat, in vivo, sc, 50 mg/kg): 0.01 ± 0.01 103/µL
- Eosinophil % ([1]; rat, in vivo, sc, 50 mg/kg): 0.11 ± 0.05%
- Erythrocyte ([1]; rat, in vivo, sc, 50 mg/kg): 6.33 ± 0.45 106/µL
- Glutamate oxaloacetate transaminase (GOT) ([1]; rat, in vivo, sc, 50 mg/kg): 67 ± 7 U/L
- Glutamate pyruvate transaminase (GPT) ([1]; rat, in vivo, sc, 50 mg/kg): 35 ± 5 U/L
- Heart/B.W. ([1]; rat, in vivo, sc, 50 mg/kg): 0.0038 ± 0.0004
- Hematocrit ([1]; rat, in vivo, sc, 50 mg/kg): 41.4 ± 3.5
- Hemoglobin ([1]; rat, in vivo, sc, 50 mg/kg): 13.8 ± 0.9 g/dL
- Kidneys/B.W. ([1]; rat, in vivo, sc, 50 mg/kg): 0.0095 ± 0.0011
- Lactate dehydrogenase (LDH) ([1]; rat, in vivo, sc, 50 mg/kg): 272 ± 132 U/L
- Liver/B.W. ([1]; rat, in vivo, sc, 50 mg/kg): 0.0460 ± 0.0044
- Lung/B.W. ([1]; rat, in vivo, sc, 50 mg/kg): 0.0054 ± 0.0005
- Lymphocyte ([1]; rat, in vivo, sc, 50 mg/kg): 6.36 ± 3.70 103/µL
- Lymphocyte % ([1]; rat, in vivo, sc, 50 mg/kg): 58.95 ± 6.42%
- Mean corpuscle hemoglobin ([1]; rat, in vivo, sc, 50 mg/kg): 21.8 ± 1.0 pg
- Mean corpuscle volume ([1]; rat, in vivo, sc, 50 mg/kg): 65.4 ± 2.7 fL
- Mean platelet volume ([1]; rat, in vivo, sc, 50 mg/kg): 6.4 ± 0.1 fL
- Monocyte ([1]; rat, in vivo, sc, 50 mg/kg): 0.63 ± 0.36 103/µL
- Monocyte % ([1]; rat, in vivo, sc, 50 mg/kg): 5.82 ± 1.11%
- Neutrophil ([1]; rat, in vivo, sc, 50 mg/kg): 3.75 ± 2.13 103/µL
- Neutrophil % ([1]; rat, in vivo, sc, 50 mg/kg): 35.11 ± 5.51%
- Platelet ([1]; rat, in vivo, sc, 50 mg/kg): 1327± 239 103/µL
- Spleen/B.W. ([1]; rat, in vivo, sc, 50 mg/kg): 0.0021 ± 0.0004
- Testes/B.W. ([1]; rat, in vivo, sc, 50 mg/kg): 0.0094 ± 0.0006
- Thymus/B.W. ([1]; rat, in vivo, sc, 50 mg/kg): 0.0021 ± 0.0006
- White blood cells ([1]; rat, in vivo, sc, 50 mg/kg): 10.75 ± 6.09 103/µL
